Assay results from patent KR20140041632A, “제주조릿대 잎 추출물 또는 그로부터 분리된 파라-쿠마르산을 이용한 비만 및 지방간 개선제 조성물” (제주대학교 산학협력단, priority 2014, dated 2014).
Entries after “also recorded” stand apart in the source; their conditions may differ.

What was measured:
[1] = tested on: AMPK; assay: Western blot of p-AMPK in HepG2 cells with induced fat accumulation; type: cell-based; settings: HepG2, oleic acid 600uM, 24 h; Fig. 15
[2] = tested on: ACC; assay: Western blot of p-ACC in differentiated L6 cells; type: cell-based, rat; settings: 48 h, Fig. 13
[3] = tested on: 3T3-L1 preadipocytes [3T3-L1 전구지방세포]; assay: Inhibition of differentiation of 3T3-L1 preadipocytes into adipocytes (Oil Red O); type: cell-based; settings: 3T3-L1, 100uM, treatment Day4 ~ Day8, Oil Red O 540nm; Fig. 11
[4] = tested on: LKB1; assay: Western blot of p-LKB1 in differentiated 3T3-L1 adipocytes; type: cell-based; settings: Fig. 12
[5] = tested on: ACC; assay: Western blot of p-ACC in differentiated 3T3-L1 adipocytes; type: cell-based; settings: Fig. 12
[6] = tested on: AMPK; assay: Western blot of p-AMPK in differentiated 3T3-L1 adipocytes; type: cell-based; settings: Fig. 12
[7] = tested on: ACC; assay: Western blot of p-ACC in HepG2 cells with induced fat accumulation; type: cell-based; settings: HepG2, oleic acid 600uM, 24 h; Fig. 15
[8] = tested on: AMPK; assay: Western blot of p-AMPK in differentiated L6 cells; type: cell-based, rat; settings: 48 h, Fig. 13
[9] = tested on: PPARα; assay: Western blot of PPARα in differentiated L6 cells; type: cell-based, rat; settings: 48 h, vs control, Fig. 14
[10] = several concentrations, vs control

O=C(O)/C=C/c1ccc(O)cc1 [p-쿠마르산, p-coumaric acid]
AMPK phosphorylation [1]: 농도의존적으로 증가; also recorded: 농도 의존적으로 AMPK 및 ACC의 인산화를 증가시킴
ACC phosphorylation at highest concentration ([2]; 50uM): 현저한 증가
ACC phosphorylation [2, 10]: 농도의존적으로 증가; also recorded: 농도 의존적으로 AMPK 및 ACC의 인산화를 증가시킴
TG content / triglyceride accumulation [3]: 유의적으로 감소; also recorded: 중성지방의 축적을 억제
LKB1 phosphorylation [4]: 증가 and 농도 의존적으로 LKB1의 인산화, AMPK의 인산화 및 ACC의 인산화를 증가시킴
ACC phosphorylation [5]: 증가 and 농도 의존적으로 LKB1의 인산화, AMPK의 인산화 및 ACC의 인산화를 증가시킴
AMPK phosphorylation [6]: 증가 and 농도 의존적으로 LKB1의 인산화, AMPK의 인산화 및 ACC의 인산화를 증가시킴
ACC phosphorylation [7]: 농도의존적으로 증가; also recorded: 농도 의존적으로 AMPK 및 ACC의 인산화를 증가시킴
AMPK phosphorylation at highest concentration ([8]; 50uM): 현저한 증가
AMPK phosphorylation [8, 10]: 농도의존적으로 증가; also recorded: 농도 의존적으로 AMPK 및 ACC의 인산화를 증가시킴
PPARα expression [9]: 증가 and 농도 의존적으로 PPARα 발현을 증가시킴
